The record followed here is patent US12389911B2, “Benzimidazole compound or salt thereof, agricultural and horticultural insecticidal and acaricidal agent containing said compound, and method for using same” (NIHON NOHYAKU CO., LTD., priority 2019, dated 2025).

What all share (format): in vivo
Data set [1] deals with Small brown planthopper (Laodelphax striatellus). The data set is described as follows: Insecticidal test on small brown planthopper (rice seedling dip). To be noted: 500 ppm, rice seedlings dipped 30 seconds, ten 3rd-instar larvae, 8 days after inoculation. The text has this:
Insecticidal Test on Small Brown Planthopper (Laodelphax striatellus)
The benzimidazole compounds represented by the general formula (1) of the present invention or salts thereof were separately dispersed in water and diluted to 500 ppm. Rice plant seedlings (variety: Nihonbare) were dipped in the agrochemical dispersions for 30 seconds. After air-dried, each seedling was put into a separate glass test tube and inoculated with ten 3rd-instar larvae of small brown planthopper, and then the glass test tubes were capped with cotton plugs. At 8 days after the inoculation, survival rates were calculated from the numbers of surviving larvae and dead larvae, the corrected mortality rate was calculated according to the formula shown below, and the insecticidal efficacy was evaluated according to the criteria shown below. Corrected mortality rate (%)=(Survival rate in a non-treatment plot−Survival rate in a treatment plot)/(Survival rate in a non-treatment plot)×100 [Expression 2] Criteria: • A: the corrected mortality rate is 100%. • B: the corrected mortality rate is 90 to 99%. • C: the corrected mortality rate is 80 to 89%. • D: the corrected mortality rate is 50 to 79%.

In data set [2] the test system is Two-spotted spider mite (Tetranychus urticae). The data set can be described thus: Acaricidal action on two-spotted spider mite (kidney bean leaf disk spray). To be noted: 500 ppm, adult females, 25° C., two days after treatment. Summed up: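 Kidney bean leaf disks (2 cm) carrying adult female T. urticae were sprayed with compound dispersion at 500 ppm and held at 25 °C. Dead mites counted 2 days later and corrected mortality calculated against untreated plots; 10 adults per plot, in duplicate.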

Data set [3] relates to Green peach aphid (Myzus persicae). The data set can be described thus: Test for control efficacy on green peach aphid (foliar application on Chinese cabbage). The settings on record: 500 ppm, foliar application to potted Chinese cabbage, 6 days after application. The source says:
Test for Control Efficacy on Green Peach Aphid (Myzus persicae) Chinese cabbage plants were planted in plastic pots (diameter: 8 cm, height: 8 cm), green peach aphids were propagated on the plants, and the number of surviving Green peach aphids in each pot was counted. The benzimidazole compounds represented by the general formula (1) of the present invention or salts thereof were separately dispersed in water and diluted to 500 ppm. The agrochemical dispersions were applied to the foliage of the potted Chinese cabbage plants. After the plants were air-dried, the pots were kept in a greenhouse. At 6 days after the foliar application, the number of surviving Green peach aphids on the Chinese cabbage plant in each pot was counted, the control rate was calculated according to the formula shown below, and the control efficacy was evaluated according to the criteria shown below. Control rate=100−{(T×Ca)/(Ta×C)}×100 [Expression 1] Ta: the number of survivors before the foliar application in a treatment plot T: the number of survivors after the foliar application in a treatment plot Ca: the number of survivors before the foliar application in a non-treatment plot C: the number of survivors after the foliar application in a non-treatment plot Criteria • A: the control rate is 100%. • B: the control rate is 90 to 99%. • C: the control rate is 80 to 89%. • D: the control rate is 50 to 79%.

As to `C=Cc1cn(-c2nc3ccccc3n2S(=O)(=O)CC)nc1C(F)(F)F` [Compound 2-21], the “insecticidal efficacy (corrected mortality rate), activity level” value (“insecticidal efficacy” for short) in data set [1] was “D or higher”. In data set [2], the “acaricidal efficacy (corrected mortality rate), activity level” value (“acaricidal efficacy” below) is “D or higher”.

Take `CCS(=O)(=O)n1c(-n2cc(C#Cc3ccc(C(F)(F)F)cc3)cn2)nc2ccccc21` [Compound 2-8]: the “control efficacy (control rate), activity level” value (“control efficacy (control rate)” for short) in data set [3] was “D or higher”. For the same compound, the “acaricidal efficacy” value in data set [2] was “D or higher”.

Turning to `CCCCCCCCc1cn(-c2nc3ccccc3n2S(=O)(=O)CC)cn1` [Compound 1-4], the “control efficacy (control rate)” value in data set [3] is “D or higher”. In addition, in data set [2], the “acaricidal efficacy” value is “D or higher”.

As to `CCS(=O)(=O)n1c(-n2cc(C(=O)OC(C)(C)C)c(C(F)F)n2)nc2ccccc21` [Compound 2-51], the “control efficacy (control rate)” value in data set [3] is “D or higher”. Further, in data set [2], the “acaricidal efficacy” value is “D or higher”.

Consider `CCS(=O)(=O)n1c(-n2cnc(C(F)(F)F)n2)nc2ccccc21` [Compound 3-1], for which the “control efficacy (control rate)” value in data set [3] was “D or higher”. Moreover, the “acaricidal efficacy” value in data set [2] is “D or higher”.

For the compound `CS(=O)(=O)n1c(-n2cc(I)c(C(F)(F)F)n2)nc2ccccc21` [Compound 2-15], the “control efficacy (control rate)” value in data set [3] was “D or higher”. The “acaricidal efficacy” value in data set [2] was “D or higher”.

For `CCS(=O)(=O)n1c(-n2cc(Cl)c(C(F)(F)F)n2)nc2ccccc21` [Compound 2-13], in data set [3], the “control efficacy (control rate)” value is on record as “D or higher”. The “acaricidal efficacy” value in data set [2] was “D or higher”.

For the compound `CCS(=O)(=O)n1c(-n2cnc(CCc3ccc(Cl)cc3Cl)c2)nc2ccccc21` [Compound 1-13], the “control efficacy (control rate)” value in data set [3] is recorded as “D or higher”. The “acaricidal efficacy” value in data set [2] is on record as “D or higher”.

For `CCS(=O)(=O)n1c(-n2cnc(CCc3ccccc3)c2)nc2ccccc21` [Compound 1-9], in data set [1], the “insecticidal efficacy” value is reported as “D or higher”. In data set [2], the “acaricidal efficacy” value was “D or higher”.

In the case of `CCS(=O)(=O)n1c(-n2cnc(COCC(F)(F)C(F)(F)C(F)(F)F)c2)nc2ccccc21` [Compound 1-32], in data set [3], the “control efficacy (control rate)” value was “D or higher”. The “acaricidal efficacy” value in data set [2] is “D or higher”.

In the case of `CCC(C)(C)OC(=O)c1cn(-c2nc3ccccc3n2S(=O)(=O)CC)nc1C(F)(F)F` [Compound 2-54], in data set [3], the “control efficacy (control rate)” value is on record as “D or higher”. Further, the “acaricidal efficacy” value in data set [2] was “D or higher”.

With `CCS(=O)(=O)n1c(-n2cc(C(=O)OCC(C)(C)C)c(C(F)(F)F)n2)nc2ccccc21` [Compound 2-28], in data set [3], the “control efficacy (control rate)” value is “D or higher”. Further, the “acaricidal efficacy” value in data set [2] is given as “D or higher”.

As to `CCS(=O)(=O)n1c(-n2cnc(C(F)(F)C(F)(F)C(F)(F)C(F)(F)F)c2)nc2ccccc21` [Compound 1-27], the “control efficacy (control rate)” value in data set [3] is reported as “D or higher”. In data set [2], the “acaricidal efficacy” value is “D or higher”.

In the case of `CCOC(=O)c1cn(-c2nc3ccccc3n2S(=O)(=O)CC)nc1C(F)(F)F` [Compound 2-26], in data set [3], the “control efficacy (control rate)” value is “D or higher”. The “acaricidal efficacy” value in data set [2] is “D or higher”.

Turning to `CCS(=O)(=O)n1c(-n2cnc(Cc3ccccc3)c2)nc2ccccc21` [Compound 1-8], the “control efficacy (control rate)” value in data set [3] is reported as “D or higher”. The “acaricidal efficacy” value in data set [2] was “D or higher”.

As to `CCS(=O)(=O)n1c(-n2cc(Br)c(OCC(F)(F)C(F)(F)F)n2)nc2ccccc21` [Compound 2-40], the “control efficacy (control rate)” value in data set [3] is recorded as “D or higher”. The “acaricidal efficacy” value in data set [2] was “D or higher”.

Consider `CCS(=O)(=O)n1c(-n2cc(SC(C)C)c(C(F)(F)F)n2)nc2ccccc21` [Compound 2-32], for which the “insecticidal efficacy” value in data set [1] is recorded as “D or higher”. For the same compound, the “acaricidal efficacy” value in data set [2] was “D or higher”.

For `CCS(=O)(=O)n1c(-n2cc(Br)c(Br)n2)nc2ccccc21` [Compound 2-34], the “control efficacy (control rate)” value in data set [3] is on record as “D or higher”. In addition, the “acaricidal efficacy” value in data set [2] is listed as “D or higher”.

Turning to `CCS(=O)(=O)n1c(-n2ccc(C(=O)OC(C)(C)C)n2)nc2ccccc21` [Compound 2-43], in data set [3], the “control efficacy (control rate)” value is given as “D or higher”. Moreover, the “acaricidal efficacy” value in data set [2] is “D or higher”.

As to `CCS(=O)(=O)n1c(-n2cc(C(=O)OC(C)C)c(C(F)(F)F)n2)nc2ccccc21` [Compound 2-53], in data set [3], the “control efficacy (control rate)” value is listed as “D or higher”. The “acaricidal efficacy” value in data set [2] is “D or higher”.

As to `CCS(=O)(=O)n1c(-n2ccc(C(F)(F)F)n2)nc2ccccc21` [Compound 2-12], the “insecticidal efficacy” value in data set [1] is recorded as “D or higher”. Moreover, the “acaricidal efficacy” value in data set [2] is recorded as “D or higher”.

As to `CCS(=O)(=O)n1c(-n2cc(Cl)c(OCC(F)(F)C(F)(F)F)n2)nc2ccccc21` [Compound 2-39], the “control efficacy (control rate)” value in data set [3] is “D or higher”. The “acaricidal efficacy” value in data set [2] is given as “D or higher”.

For the compound `CCS(=O)(=O)n1c(-n2cnc(CCc3ccc(Cl)cc3)c2)nc2ccccc21` [Compound 1-12], in data set [3], the “control efficacy (control rate)” value is “D or higher”. The “acaricidal efficacy” value in data set [2] is “D or higher”.

For `CCc1cn(-c2nc3ccccc3n2S(=O)(=O)CC)nc1C(F)(F)F` [Compound 2-19], in data set [3], the “control efficacy (control rate)” value was “D or higher”. Further, in data set [2], the “acaricidal efficacy” value was “D or higher”.

For the compound `CCS(=O)(=O)n1c(-n2cc(C(=O)OC(C)(C)C)cn2)nc2ccccc21` [Compound 2-11], the “control efficacy (control rate)” value in data set [3] was “D or higher”. Besides, the “acaricidal efficacy” value in data set [2] is given as “D or higher”.

On to `CCS(=O)(=O)n1c(-n2cc(/C=C/C(=O)OC(C)(C)C)c(C(F)(F)F)n2)nc2ccccc21` [Compound 2-24], for which the “control efficacy (control rate)” value in data set [3] was “D or higher”. In addition, the “acaricidal efficacy” value in data set [2] is “D or higher”.

As for `CCS(=O)(=O)n1c(-n2cc(C(F)(C(F)(F)F)C(F)(F)F)cn2)nc2ccccc21` [Compound 2-10], the “control efficacy (control rate)” value in data set [3] is “D or higher”. Besides, the “acaricidal efficacy” value in data set [2] was “D or higher”.

As to `CCCCCC/C=C\c1cn(-c2nc3ccccc3n2S(=O)(=O)CC)cn1` [Compound 1-6], the “control efficacy (control rate)” value in data set [3] is “D or higher”. Also, the “acaricidal efficacy” value in data set [2] is “D or higher”.

For the compound `CCS(=O)(=O)n1c(-n2cc(C#N)c(C(=O)OC(C)(C)C)n2)nc2ccccc21` [Compound 2-108], the “acaricidal efficacy” value in data set [2] is “D or higher”.

For the compound `CCS(=O)(=O)n1c(-n2cnc(C(=O)Nc3ccccc3)c2)nc2ccccc21` [Compound 1-30], the “control efficacy (control rate)” value in data set [3] was “D or higher”.

Turning to `CCS(=O)(=O)n1c(-n2cc(C(=O)NCC(F)(F)F)c(C(=O)NCC(F)(F)F)n2)nc2ccccc21` [Compound 2-95], the “acaricidal efficacy” value in data set [2] is listed as “D or higher”.

Turning to `CCS(=O)(=O)n1c(-n2cnc(CCc3ccc(Br)cc3)c2)nc2ccccc21` [Compound 1-14], the “acaricidal efficacy” value in data set [2] is on record as “D or higher”.

Consider `CCS(=O)(=O)n1c(-n2cc(CCC(=O)OC(C)(C)C)c(C(F)(F)F)n2)nc2ccccc21` [Compound 2-61], for which, in data set [2], the “acaricidal efficacy” value is on record as “D or higher”.

Consider `CCS(=O)(=O)n1c(-n2cc(C#N)c(C(F)(F)C(F)(F)F)n2)nc2ccccc21` [Compound 2-111], for which the “acaricidal efficacy” value in data set [2] is listed as “D or higher”.

Take `CCS(=O)(=O)n1c(-n2cc(C(=O)SC(C)(C)C)c(C(F)(F)F)n2)nc2ccccc21` [Compound 2-31]: the “acaricidal efficacy” value in data set [2] is “D or higher”.

In the case of `CCS(=O)(=O)n1c(-n2cc(C3CC3)c(C(F)(F)F)n2)nc2ccccc21` [Compound 2-20], the “control efficacy (control rate)” value in data set [3] is on record as “D or higher”. Also, the “acaricidal efficacy” value in data set [2] is listed as “D or higher”.

For the compound `CCS(=O)(=O)n1c(-n2cnc(C#N)c2)nc2ccccc21` [Compound 1-31], in data set [2], the “acaricidal efficacy” value is recorded as “D or higher”.
